Measured values reported in ChEMBL document CHEMBL1134484, “Homology modeling using multiple molecular dynamics simulations and docking studies of the human androgen receptor ligand binding domain bound to testosterone and nonsteroidal ligands” (J Med Chem, 2001).
pKi: −log10 of the molar value.

Tests used:
Androgen receptor [1] = molecular target: T1, Androgen receptor (Homo sapiens, UniProt P10275); experiment: Binding affinity against human androgen receptor (hAR) in competitive binding assay; NB means No binding
T1 sequence (P10275 whole entry): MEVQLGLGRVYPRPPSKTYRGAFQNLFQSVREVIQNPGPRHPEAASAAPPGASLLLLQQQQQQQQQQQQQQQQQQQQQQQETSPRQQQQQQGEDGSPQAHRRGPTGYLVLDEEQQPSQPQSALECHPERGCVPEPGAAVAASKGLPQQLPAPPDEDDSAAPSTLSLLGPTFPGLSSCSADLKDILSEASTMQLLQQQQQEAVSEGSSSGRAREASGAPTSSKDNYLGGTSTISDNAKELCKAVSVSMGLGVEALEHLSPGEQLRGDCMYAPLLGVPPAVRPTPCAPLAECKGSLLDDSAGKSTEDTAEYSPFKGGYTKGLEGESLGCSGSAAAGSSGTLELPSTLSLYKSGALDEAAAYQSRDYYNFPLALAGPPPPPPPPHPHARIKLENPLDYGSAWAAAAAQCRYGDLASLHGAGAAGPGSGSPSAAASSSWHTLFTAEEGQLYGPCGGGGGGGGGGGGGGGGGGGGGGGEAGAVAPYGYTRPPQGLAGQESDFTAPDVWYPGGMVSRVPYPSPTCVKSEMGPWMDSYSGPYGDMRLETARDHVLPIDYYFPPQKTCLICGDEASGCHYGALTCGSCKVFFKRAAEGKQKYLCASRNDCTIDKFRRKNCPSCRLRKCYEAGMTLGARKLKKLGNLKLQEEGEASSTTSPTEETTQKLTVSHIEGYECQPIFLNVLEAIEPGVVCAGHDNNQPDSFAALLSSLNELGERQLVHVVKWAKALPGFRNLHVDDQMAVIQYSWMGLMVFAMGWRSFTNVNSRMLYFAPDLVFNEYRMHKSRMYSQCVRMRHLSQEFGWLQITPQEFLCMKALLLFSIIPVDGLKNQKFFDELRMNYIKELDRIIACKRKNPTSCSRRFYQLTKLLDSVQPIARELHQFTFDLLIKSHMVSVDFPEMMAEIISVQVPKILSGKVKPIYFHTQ

Androgen receptor [2] = molecular target: T1, Androgen receptor; experiment: Binding affinity against human androgen receptor (hAR) in competitive binding assay

pKi (Androgen receptor [2]) | Compound | Ki (Androgen receptor [1])
– | C[C@@]1(C(=O)Nc2ccc([N+](=O)[O-])c(C(F)(F)F)c2)CO1 | Not Active
7.09 | C[C@](O)(CBr)C(=O)Nc1ccc(N)c(C(F)(F)F)c1 | –
